Measurements: US9938240B2, “Fluorinated derivatives of 3-hydroxypyridin-4-ones” (Apotex Technologies Inc., priority 2009, dated 2018)

What was measured:
[1] = system: SV-NRA cells; experiment: MPP+ treated SV-NRA cell viability (MTT); type: cell-based; conditions: 5 mM MPP+ treated SV-NRA cells, 20 μM, 24 h, p<0.05
Method: SV-NRAs cells were plated in a 96-well plate at a density of 10,000 cells/well in 100 μL of DME […], high glucose 1× liquid (Sigma) supplemented with 10% heat-inactivated FBS and 1× antibiotic/antimycotic solution (Sigma). On the next day, the cells were washed with EMEM media (Eagle's minimal essential media; phenol red, serum and glutamine free) and treated for 24 h with 5 mM MPP^+ (1-methyl-4-phenylpyridinium) in EMEM media in the presence or absence of a tested iron chelating compound. All compounds were tested at the following concentrations: 10 μM, 20 μM, and 40 μM. After 24 h of incubation, cell viability was determined with MTT ((3-(4,5-Dimethylthiazol-2-yl)-2,5-diphenyltetrazolium bromide, a yellow tetrazole) assay which measures mitochondrial activity (Carmichael et al. Cancer Research 1987, 47, 936-942). MTT solution (10 μL, 5 mg/mL) was added to the wells and incubated for 2 h. Formazan product was solubilized with 100 μL of 10% SDS (sodium dodecyl sulphate) in 0.01M HCl. Optical density was determined at 570 nm using Multiscan Ascent plate reader (Labsystems) and data collected were corrected for background signal measured at 650 nm. All data are expressed as % of control.
Co-treatment with iron chelators protected the cells from MPP^+ toxicity.

[2] = Benzoic acid hydroxylation assay; conditions: benzoic acid 1 mM, H2O2 6 mM, FeCl3 30 μM, chelator 30 μM, pH 7.4, up to 81 h
Text: Benzoic acid is a hydroxyl radical scavenger and reacts with hydroxyl radical to give 2-hydroxy, 3-hydroxy and 4-hydroxybenzoic acids. The benzoic acid hydroxylation assay is a chemical assay designed to detect damage caused by hydroxyl radical (Dean and Nicholson, Free Radical Research 1994, vol 20, 83-101). For example, deferiprone suppresses the formation of hydroxybenzoic acids in the presence of iron salts and hydrogen peroxide, while EDTA and iron salts allow such hydroxylation reactions to take place.
This screening assay involves the use of iron salt, benzoic acid, hydrogen peroxide and the chelator and measures the ability of the chelator to inhibit the formation of hydroxybenzoate as an indicator to prevent hydroxyl radical formation in living system.
Briefly, this procedure is based on the ability of hydroxyl radicals to hydroxylate benzoate to give 2-, 3- and 4-hydroxylated benzoic acid products. Benzoic acid (1 mM) is incubated over time up to 81 h at room temperature in the dark in 10 mM phosphate buffer (pH 7.4) with 6 mM hydrogen peroxide, ferric chloride (30 μM) and the Fe chelator (30 μM). HPLC is the method of choice used to monitor and quantify the amount of 2-, 3- and 4-hydroxylated products formed over time in the reaction mixture, and can be verified against authentic benzoic acid and its hydroxylated products via their respective retention times and areas under curve. In addition, several controls are used: (i) a control without added Fe stock solution and Fe chelator; (ii) a control without added Fe chelator; (iii) EDTA as positive control; and (iv) deferiprone as negative control. The Fe-EDTA system is a hydroxyl radical generator and is known to promote hydroxylation of benzoic acid.

Compound	increase in cell viability [1]	hydroxylation of benzoic acid by Fe chelate [2]
Cc1c(O)c(=O)ccn1C [Deferiprone, 3-hydroxy-1,2-dimethylpyridin-4(1H)-one, reference compound]	about 20%	
CN(C)C(c1c(O)c(=O)ccn1C)C(F)(F)F (centres unmarked) [Apo7041, 2-[1-(dimethylamino)-2,2,2-trifluoroethyl]-3-hydroxy-1-methylpyridin-4(1H)-one]		do not promote the hydroxylation of benzoic acid
